# Source: paper PMC7180728, “Novel Anthraquinone Compounds Inhibit Colon Cancer Cell Proliferation via the Reactive Oxygen Species/JNK Pathway” (Molecules, 2020)
# Test system: JNK
# Test: Western blot, phosphorylated and total JNK
# Format: cell-based, human
# Details: HCT116, western blot
# From the text: To further elucidate the mechanism by which 8a inhibits proliferation and induces apoptosis of HCT116 cells, the levels of phosphorylated and total JNK protein were examined by western blot analysis. […] Phosphorylation of JNK activated by the ROS pathway results in overexpression of tumor suppressor factors, thereby inducing apoptosis. In addition, JNK phosphorylation is associated with ROS production. To determine whether ROS production contributes to JNK1/2 phosphorylation and its related mechanisms, we blocked 8a-induced ROS production in HCT116 cells and then analyzed the changes in JNK 1/2 phosphorylation by western blotting. […] Furthermore, pre-treatment of cells with NAC reduced the levels of p-JNK induced by 8a.
# The expression of signaling pathway-related proteins was detected by western blot analysis. Cell (1 × 10^6) were plated in 90-mm dishes and treated with 8a for 24 h. The cells were treated with NAC in the same way as in step 4.7. Resuspend the cells in Buffer A (1 mM EDTA, 1 mM PMSF, 0.28 μg/mL apotinin, 50 μg/mL leupeptin, 7 μg/mL pepstain A) and transferred to a 1 mL glass homogenizer and pull up and down 30 times in an ice bath. Cells were collected and centrifuged (1000 g × 10 min, 4 °C). The obtained supernatant and precipitate were the crude cytoplasm and mitochondria, respectively. The cytosolic fraction was transferred to an ultra-ion tube and centrifuged (100,000g × 1 hr, 4 °C), and the resulting supernatant was the purified cytosolic fraction. The mitochondrial pellet was resuspended in Buffer B (1mM EGTA, 1mM PMSF, 0.28 μg/mL apotinin, 50 μg/mL leupeptin, 7 μg/mL pepstain A), centrifuged (10,000g × 10 min, 4 °C), and repeated 3 times. The mitochondria pellet was lysed in cell lysate buffer (1% NP-40, 2 μg/mL aprotinin, 2 μg/mL leupeptin, 1mM EDTA, 1mM Na vanadate). Protein concentrations in the supernatant were determined by using a Minbio BCA protein assay kit. Protein were separated by SDS-PAGE and transferred to a PVDF membrane. The membrane was blocked, and incubated with primary detection antibodies overnight at 4 °C. […]
structure (smiles),measurement,setting,value
"CC(C)CC(NC(=O)c1ccc2c(c1[N+](=O)[O-])C(=O)c1ccccc1C2=O)C(=O)O (stereo not drawn) [Compound 8a, N-[(9,10-dihydro-1-nitro-9,10-dioxo-2-anthracenyl)carbonyl-leucine]]",levels of phosphorylated JNK,"20 μg/mL, time course",gradually increased with time
same,total JNK levels,"20 μg/mL, time course",not altered
same,levels of p-JNK induced by 8a after NAC pre-treatment,8a 20 μg/mL with NAC pre-treatment,reduced
